Laboratory results taken from the supplement of paper PMC10307832.

Columns and labels:
Assay in all cases: relative viability (nuclei count vs DMSO), 5 days (fraction); higher = more cells survive
Everolimus + Palbociclib = compound: CO[C@H]1C[C@@H]2CC[C@@H](C)[C@@](O)(O2)C(=O)C(=O)N2CCCC[C@H]2C(=O)O[C@H]([C@H](C)C[C@@H]2CC[C@@H](OCCO)[C@H](OC)C2)CC(=O)[C@H](C)/C=C(\C)[C@@H](O)[C@@H](OC)C(=O)[C@H](C)C[C@H](C)/C=C/C=C/C=C/1C [Everolimus] + CC(=O)c1c(C)c2cnc(Nc3ccc(N4CCNCC4)cn3)nc2n(C2CCCC2)c1=O [Palbociclib] (partner 0.5 µM)
In short: (§1)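 Five library-drug doses in √10 steps were combined with a fixed anchor-drug dose, or a single drug was given alone, by pin tool to lung cancer cell lines in 1536-well plates the day after seeding. Nuclei were stained and counted after 5 days. Relative viability is the nuclei count in treated wells over that in vehicle wells, taken as the median of duplicate plates.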

Everolimus + Foretinib = compound: CO[C@H]1C[C@@H]2CC[C@@H](C)[C@@](O)(O2)C(=O)C(=O)N2CCCC[C@H]2C(=O)O[C@H]([C@H](C)C[C@@H]2CC[C@@H](OCCO)[C@H](OC)C2)CC(=O)[C@H](C)/C=C(\C)[C@@H](O)[C@@H](OC)C(=O)[C@H](C)C[C@H](C)/C=C/C=C/C=C/1C [Everolimus] + COc1cc2c(Oc3ccc(NC(=O)C4(C(=O)Nc5ccc(F)cc5)CC4)cc3F)ccnc2cc1OCCCN1CCOCC1 [Foretinib] (partner 0.25 µM)
In short: as §1

Everolimus + OSI-027 = compound: CO[C@H]1C[C@@H]2CC[C@@H](C)[C@@](O)(O2)C(=O)C(=O)N2CCCC[C@H]2C(=O)O[C@H]([C@H](C)C[C@@H]2CC[C@@H](OCCO)[C@H](OC)C2)CC(=O)[C@H](C)/C=C(\C)[C@@H](O)[C@@H](OC)C(=O)[C@H](C)C[C@H](C)/C=C/C=C/C=C/1C [Everolimus] + COc1cccc2cc(-c3nc([C@H]4CC[C@H](C(=O)O)CC4)n4ncnc(N)c34)[nH]c12 [OSI-027] (partner 0.5 µM)
In short: as §1

Everolimus = compound: CO[C@H]1C[C@@H]2CC[C@@H](C)[C@@](O)(O2)C(=O)C(=O)N2CCCC[C@H]2C(=O)O[C@H]([C@H](C)C[C@@H]2CC[C@@H](OCCO)[C@H](OC)C2)CC(=O)[C@H](C)/C=C(\C)[C@@H](O)[C@@H](OC)C(=O)[C@H](C)C[C@H](C)/C=C/C=C/C=C/1C [Everolimus]
In short: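 After an overnight hold at 37 °C, lung cancer cell lines in 1536-well plates were pinned with five library-drug doses (not always all listed), each √10 from the next, on vehicle-anchored plates. The cells stayed 5 days without fresh medium, then a one-step fix, permeabilisation and Hoechst stain preceded 4× imaging and MetaXpress nuclear counts. A plate passed only with control CV under 25% and at least one doubling. Viability is the median, over plates, of treated-well nuclei relative to vehicle-well nuclei.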

| Cell Line | relative viability (Everolimus + Palbociclib; first compound 0.01 µM) | relative viability (Everolimus + Palbociclib; first compound 0.03162 µM) | relative viability (Everolimus + Palbociclib; first compound 0.1 µM) | relative viability (Everolimus + Palbociclib; first compound 0.3162 µM) | relative viability (Everolimus + Palbociclib; first compound 1 µM) | relative viability (Everolimus + Foretinib; first compound 0.01 µM) | relative viability (Everolimus + Foretinib; first compound 0.03162 µM) | relative viability (Everolimus + Foretinib; first compound 0.1 µM) | relative viability (Everolimus + Foretinib; first compound 0.3162 µM) | relative viability (Everolimus + Foretinib; first compound 1 µM) | relative viability (Everolimus + OSI-027; first compound 0.01 µM) | relative viability (Everolimus + OSI-027; first compound 0.03162 µM) | relative viability (Everolimus + OSI-027; first compound 0.1 µM) | relative viability (Everolimus + OSI-027; first compound 0.3162 µM) | relative viability (Everolimus + OSI-027; first compound 1 µM) | relative viability (Everolimus; 0.01 µM) | relative viability (Everolimus; 0.03162 µM) | relative viability (Everolimus; 0.1 µM) | relative viability (Everolimus; 0.3162 µM) | relative viability (Everolimus; 1 µM) |
| --- | --- | --- | --- | --- | --- | --- | --- | --- | --- | --- | --- | --- | --- | --- | --- | --- | --- | --- | --- | --- |
| NCI-H1734 | 0.285 | 0.241 | 0.288 | 0.251 | 0.258 | 0.495 | 0.529 | 0.479 | 0.467 | 0.541 | 0.408 | 0.411 | 0.365 | 0.417 | 0.423 | 0.648 | 0.692 | 0.602 | 0.615 | 0.742 |
| NCI-H1755 | 0.407 | 0.395 | 0.378 | 0.361 | 0.356 | 0.791 | 0.751 | 0.653 | 0.822 | 0.632 | 0.655 | 0.63 | 0.573 | 0.647 | 0.593 | 0.919 | 0.865 | 0.749 | 0.819 | 0.816 |
| NCI-H1793 | 0.219 | 0.19 | 0.246 | 0.214 | 0.166 | 0.293 | 0.314 | 0.259 | 0.293 | 0.291 | 0.236 | 0.189 | 0.185 | 0.21 | 0.185 | 0.435 | 0.305 | 0.351 | 0.376 | 0.299 |
| NCI-H1915 | 0.398 | 0.347 | 0.316 | 0.378 | 0.334 | 1.04 | 0.975 | 0.838 | 0.972 | 0.79 | 0.531 | 0.516 | 0.45 | 0.512 | 0.49 | 0.955 | 0.863 | 0.82 | 0.875 | 0.866 |
| NCI-H1944 | 0.214 | 0.195 | 0.196 | 0.23 | 0.202 | 0.572 | 0.583 | 0.608 | 0.629 | 0.658 | 0.365 | 0.305 | 0.294 | 0.358 | 0.326 | 0.636 | 0.687 | 0.575 | 0.789 | 0.626 |
| NCI-H1975 | 0.481 | 0.398 | 0.524 | 0.454 | 0.358 | 0.765 | 0.67 | 0.714 | 0.748 | 0.579 | 0.496 | 0.498 | 0.45 | 0.473 | 0.436 | 0.73 | 0.798 | 0.793 | 0.734 | 0.677 |
| NCI-H1993 | 0.495 | 0.436 | 0.489 | 0.493 | 0.408 | 0.554 | 0.592 | 0.667 | 0.628 | 0.627 | 0.566 | 0.554 | 0.53 | 0.529 | 0.553 | 0.675 | 0.61 | 0.596 | 0.685 | 0.626 |
